Key:
[1] = target: Receptor tyrosine-protein kinase erbB-4 (Homo sapiens) (UniProt Q15303); experiment: Inhibition of human ErbB4 at 10 uM after 60 mins by TR-FRET assay; settings: values are per cent of control
[2] = target: Mitogen-activated protein kinase 9 (Homo sapiens, UniProt P45984); settings: 10 uM
Description: Inhibition of human JNK2alpha2 at 10 uM after 60 mins by TR-FRET assay

[3] = target: Tyrosine-protein kinase Fgr (Homo sapiens) (UniProt P09769); experiment: Inhibition of human Fgr at 10 uM after 60 mins by TR-FRET assay; values are per cent of control
[4] = target: Proto-oncogene tyrosine-protein kinase ROS (Homo sapiens) (UniProt P08922); experiment: Inhibition of human Ros at 10 uM after 60 mins by TR-FRET assay; values are per cent of control
[5] = target: ALK tyrosine kinase receptor (Homo sapiens) (UniProt Q9UM73); experiment: Inhibition of human ALK at 10 uM after 60 mins by TR-FRET assay; values are per cent of control
[6] = target: Protein-tyrosine kinase 6 (Homo sapiens) (UniProt Q13882); experiment: Inhibition of human BRK at 10 uM after 60 mins by TR-FRET assay; values are per cent of control
Sequence of Protein-tyrosine kinase 6 (Homo sapiens) (Q13882 whole entry, looked up): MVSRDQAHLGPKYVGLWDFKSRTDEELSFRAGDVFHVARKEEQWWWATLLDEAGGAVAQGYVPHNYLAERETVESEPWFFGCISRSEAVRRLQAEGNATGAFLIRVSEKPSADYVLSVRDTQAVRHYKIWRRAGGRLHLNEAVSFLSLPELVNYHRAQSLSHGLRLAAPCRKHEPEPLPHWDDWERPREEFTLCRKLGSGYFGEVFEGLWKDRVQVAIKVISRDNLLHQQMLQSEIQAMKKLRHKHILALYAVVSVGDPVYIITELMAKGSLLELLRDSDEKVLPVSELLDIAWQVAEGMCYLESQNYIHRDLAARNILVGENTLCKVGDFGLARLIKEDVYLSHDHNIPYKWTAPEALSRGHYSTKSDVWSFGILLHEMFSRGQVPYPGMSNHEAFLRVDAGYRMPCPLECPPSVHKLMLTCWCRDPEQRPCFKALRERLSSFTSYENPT

[7] = target: MAP kinase-interacting serine/threonine-protein kinase 2 (Homo sapiens) (UniProt Q9HBH9); experiment: Inhibition of human Mnk2 at 10 uM after 60 mins by TR-FRET assay; values are per cent of control
[8] = target: Angiopoietin-1 receptor (Homo sapiens) (UniProt Q02763); experiment: Inhibition of human Tie2 at 10 uM after 60 mins by TR-FRET assay; values are per cent of control
[9] = target: Mitogen-activated protein kinase kinase kinase 5 (Homo sapiens) (UniProt Q99683); experiment: Inhibition of human ASK1 at 10 uM after 60 mins by TR-FRET assay; values are per cent of control
[10] = target: Serine/threonine-protein kinase PAK 4 (Homo sapiens) (UniProt O96013); experiment: Inhibition of human PAK4 at 10 uM after 60 mins by TR-FRET assay; values are per cent of control
[11] = target: Serine/threonine-protein kinase PAK 6 (Homo sapiens) (UniProt Q9NQU5); experiment: Inhibition of human PAK6 at 10 uM after 60 mins by TR-FRET assay; values are per cent of control
[12] = target: PAS domain-containing serine/threonine-protein kinase (Homo sapiens) (UniProt Q96RG2); experiment: Inhibition of human PASK at 10 uM after 60 mins by TR-FRET assay; values are per cent of control
[13] = target: Fibroblast growth factor receptor 4 (Homo sapiens) (UniProt P22455); experiment: Inhibition of human FGFR4 at 10 uM after 60 mins by TR-FRET assay; values are per cent of control
Sequence of Fibroblast growth factor receptor 4 (Homo sapiens) (P22455 22-802 limits assumed): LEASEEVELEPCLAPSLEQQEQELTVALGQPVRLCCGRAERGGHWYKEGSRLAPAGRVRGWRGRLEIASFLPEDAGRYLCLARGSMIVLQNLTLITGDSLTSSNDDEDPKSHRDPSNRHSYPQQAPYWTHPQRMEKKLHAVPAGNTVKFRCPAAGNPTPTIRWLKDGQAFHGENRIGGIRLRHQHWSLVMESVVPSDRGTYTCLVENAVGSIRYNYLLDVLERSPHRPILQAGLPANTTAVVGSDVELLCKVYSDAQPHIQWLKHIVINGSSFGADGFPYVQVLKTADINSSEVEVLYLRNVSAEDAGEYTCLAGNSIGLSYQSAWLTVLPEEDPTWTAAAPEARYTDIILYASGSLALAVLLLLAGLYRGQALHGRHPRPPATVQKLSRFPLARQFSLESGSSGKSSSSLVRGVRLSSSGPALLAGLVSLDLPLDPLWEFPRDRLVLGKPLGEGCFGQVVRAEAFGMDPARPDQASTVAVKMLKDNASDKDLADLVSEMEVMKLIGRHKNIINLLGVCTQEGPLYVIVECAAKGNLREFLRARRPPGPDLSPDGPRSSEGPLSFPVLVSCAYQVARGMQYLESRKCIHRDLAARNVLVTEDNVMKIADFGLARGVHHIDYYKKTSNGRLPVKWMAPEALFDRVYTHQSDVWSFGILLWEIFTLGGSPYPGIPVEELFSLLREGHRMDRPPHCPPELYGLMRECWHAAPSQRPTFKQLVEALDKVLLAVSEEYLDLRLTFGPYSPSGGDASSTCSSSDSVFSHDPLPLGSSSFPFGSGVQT

[14] = target: Homeodomain-interacting protein kinase 3 (Homo sapiens) (UniProt Q9H422); experiment: Inhibition of human HIPK3 at 10 uM after 60 mins by TR-FRET assay; values are per cent of control
Sequence of Homeodomain-interacting protein kinase 3 (Homo sapiens) (Q9H422 whole entry, looked up): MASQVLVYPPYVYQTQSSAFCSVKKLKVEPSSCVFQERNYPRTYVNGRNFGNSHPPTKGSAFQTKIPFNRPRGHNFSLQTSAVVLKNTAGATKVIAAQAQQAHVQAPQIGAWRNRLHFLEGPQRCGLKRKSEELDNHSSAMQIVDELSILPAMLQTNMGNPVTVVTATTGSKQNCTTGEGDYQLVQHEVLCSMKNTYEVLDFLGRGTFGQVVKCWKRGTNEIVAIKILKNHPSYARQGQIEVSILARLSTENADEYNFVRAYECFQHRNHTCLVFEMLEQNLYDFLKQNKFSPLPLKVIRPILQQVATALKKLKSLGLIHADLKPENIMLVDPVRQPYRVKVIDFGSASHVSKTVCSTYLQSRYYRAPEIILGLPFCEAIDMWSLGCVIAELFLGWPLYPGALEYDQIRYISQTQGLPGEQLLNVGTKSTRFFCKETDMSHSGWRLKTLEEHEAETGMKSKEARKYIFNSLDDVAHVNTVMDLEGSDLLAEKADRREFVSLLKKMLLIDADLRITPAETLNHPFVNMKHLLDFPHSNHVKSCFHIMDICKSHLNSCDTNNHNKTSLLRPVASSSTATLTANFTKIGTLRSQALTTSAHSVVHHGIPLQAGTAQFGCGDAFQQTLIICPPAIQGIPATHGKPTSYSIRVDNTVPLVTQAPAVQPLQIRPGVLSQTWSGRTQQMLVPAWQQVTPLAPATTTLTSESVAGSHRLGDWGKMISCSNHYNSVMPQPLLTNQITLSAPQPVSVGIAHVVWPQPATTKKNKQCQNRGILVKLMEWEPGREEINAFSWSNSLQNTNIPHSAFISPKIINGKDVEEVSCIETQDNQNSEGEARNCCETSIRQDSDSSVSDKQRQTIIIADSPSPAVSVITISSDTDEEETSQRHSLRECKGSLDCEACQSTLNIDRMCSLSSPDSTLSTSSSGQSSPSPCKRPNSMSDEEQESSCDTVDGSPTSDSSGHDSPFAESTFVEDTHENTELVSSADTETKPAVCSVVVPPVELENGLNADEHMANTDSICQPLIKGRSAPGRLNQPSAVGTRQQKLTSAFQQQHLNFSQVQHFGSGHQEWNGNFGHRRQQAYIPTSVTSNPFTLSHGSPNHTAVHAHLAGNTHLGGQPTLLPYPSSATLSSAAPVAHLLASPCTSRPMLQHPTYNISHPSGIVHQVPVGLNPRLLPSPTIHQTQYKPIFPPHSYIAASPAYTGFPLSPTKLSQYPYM

[15] = target: Serine/threonine-protein kinase 17B (Homo sapiens) (UniProt O94768); experiment: Inhibition of human DYRK2 at 10 uM after 60 mins by TR-FRET assay; values are per cent of control
[16] = target: Testis-specific serine/threonine-protein kinase 1 (Homo sapiens) (UniProt Q9BXA7); experiment: Inhibition of human TSSK1 at 10 uM after 60 mins by TR-FRET assay; values are per cent of control
Sequence of Testis-specific serine/threonine-protein kinase 1 (Homo sapiens) (Q9BXA7 whole entry): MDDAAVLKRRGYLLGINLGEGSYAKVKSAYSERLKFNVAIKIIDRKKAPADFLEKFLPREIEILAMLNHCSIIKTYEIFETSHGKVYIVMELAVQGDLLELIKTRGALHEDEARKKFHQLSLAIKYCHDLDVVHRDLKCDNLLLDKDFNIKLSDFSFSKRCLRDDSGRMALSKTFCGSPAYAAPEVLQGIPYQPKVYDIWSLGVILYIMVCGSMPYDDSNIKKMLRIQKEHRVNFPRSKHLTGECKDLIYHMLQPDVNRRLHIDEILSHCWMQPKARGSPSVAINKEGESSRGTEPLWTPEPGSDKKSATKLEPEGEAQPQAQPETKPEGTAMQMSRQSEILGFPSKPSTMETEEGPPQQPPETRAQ

[17] = target: Serine/threonine-protein kinase 17A (Homo sapiens) (UniProt Q9UEE5); experiment: Inhibition of human DRAK1 at 10 uM after 60 mins by TR-FRET assay; values are per cent of control
Sequence of Serine/threonine-protein kinase 17A (Homo sapiens) (Q9UEE5 whole entry): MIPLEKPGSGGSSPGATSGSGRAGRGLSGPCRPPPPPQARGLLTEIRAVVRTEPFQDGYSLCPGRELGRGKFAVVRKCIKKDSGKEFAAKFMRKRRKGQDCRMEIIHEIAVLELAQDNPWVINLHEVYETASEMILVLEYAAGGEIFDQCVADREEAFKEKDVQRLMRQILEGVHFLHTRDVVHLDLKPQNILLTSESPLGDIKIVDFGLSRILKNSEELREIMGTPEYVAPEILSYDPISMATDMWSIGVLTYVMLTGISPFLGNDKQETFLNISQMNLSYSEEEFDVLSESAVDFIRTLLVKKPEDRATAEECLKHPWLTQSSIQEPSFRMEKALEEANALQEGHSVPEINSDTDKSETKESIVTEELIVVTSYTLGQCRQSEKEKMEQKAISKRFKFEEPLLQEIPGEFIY

[18] = target: T1, Aurora kinase A (Homo sapiens) (UniProt O14965); experiment: Inhibition of human Aurora-A at 10 uM after 60 mins by TR-FRET assay; values are per cent of control
T1 sequence (whole entry): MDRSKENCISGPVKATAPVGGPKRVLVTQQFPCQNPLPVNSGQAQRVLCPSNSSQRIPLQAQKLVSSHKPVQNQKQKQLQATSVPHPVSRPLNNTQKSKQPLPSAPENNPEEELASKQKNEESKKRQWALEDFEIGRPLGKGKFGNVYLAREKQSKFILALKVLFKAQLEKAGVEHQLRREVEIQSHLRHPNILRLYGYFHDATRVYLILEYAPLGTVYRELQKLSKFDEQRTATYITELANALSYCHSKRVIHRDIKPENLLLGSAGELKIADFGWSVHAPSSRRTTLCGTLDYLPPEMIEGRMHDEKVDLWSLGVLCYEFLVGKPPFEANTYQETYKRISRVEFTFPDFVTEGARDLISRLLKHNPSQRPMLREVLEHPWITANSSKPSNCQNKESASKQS

[19] = target: Cyclin-dependent kinase 5/CDK5 activator 1 (Homo sapiens) (UniProt Q00535+Q15078); experiment: Inhibition of human CDK5/p25 at 10 uM after 60 mins by TR-FRET assay; values are per cent of control
[20] = target: Protein kinase C delta type (Homo sapiens) (UniProt Q05655); experiment: Inhibition of human PKCdelta at 10 uM after 60 mins by TR-FRET assay; values are per cent of control
[21] = target: Calcium/calmodulin-dependent protein kinase type 1D (Homo sapiens) (UniProt Q8IU85); experiment: Inhibition of human CaMK1delta at 10 uM after 60 mins by TR-FRET assay; values are per cent of control
[22] = system: Tyrosine-protein kinase ABL1 (Homo sapiens), P00519 [T315I]; experiment: Inhibition of human Abl T315I mutant at 10 uM after 60 mins by TR-FRET assay; values are per cent of control
[23] = system: Proto-oncogene tyrosine-protein kinase receptor Ret (Homo sapiens), P07949 [V804L]; experiment: Inhibition of human Ret V804L mutant at 10 uM after 60 mins by TR-FRET assay; values are per cent of control
[24] = system: Serine/threonine-protein kinase Chk2 (Homo sapiens), O96017 [I157T]; experiment: Inhibition of human CHK2 I157T mutant at 10 uM after 60 mins by TR-FRET assay; values are per cent of control

Sequence of Receptor tyrosine-protein kinase erbB-4 (Homo sapiens) (Q15303 whole entry): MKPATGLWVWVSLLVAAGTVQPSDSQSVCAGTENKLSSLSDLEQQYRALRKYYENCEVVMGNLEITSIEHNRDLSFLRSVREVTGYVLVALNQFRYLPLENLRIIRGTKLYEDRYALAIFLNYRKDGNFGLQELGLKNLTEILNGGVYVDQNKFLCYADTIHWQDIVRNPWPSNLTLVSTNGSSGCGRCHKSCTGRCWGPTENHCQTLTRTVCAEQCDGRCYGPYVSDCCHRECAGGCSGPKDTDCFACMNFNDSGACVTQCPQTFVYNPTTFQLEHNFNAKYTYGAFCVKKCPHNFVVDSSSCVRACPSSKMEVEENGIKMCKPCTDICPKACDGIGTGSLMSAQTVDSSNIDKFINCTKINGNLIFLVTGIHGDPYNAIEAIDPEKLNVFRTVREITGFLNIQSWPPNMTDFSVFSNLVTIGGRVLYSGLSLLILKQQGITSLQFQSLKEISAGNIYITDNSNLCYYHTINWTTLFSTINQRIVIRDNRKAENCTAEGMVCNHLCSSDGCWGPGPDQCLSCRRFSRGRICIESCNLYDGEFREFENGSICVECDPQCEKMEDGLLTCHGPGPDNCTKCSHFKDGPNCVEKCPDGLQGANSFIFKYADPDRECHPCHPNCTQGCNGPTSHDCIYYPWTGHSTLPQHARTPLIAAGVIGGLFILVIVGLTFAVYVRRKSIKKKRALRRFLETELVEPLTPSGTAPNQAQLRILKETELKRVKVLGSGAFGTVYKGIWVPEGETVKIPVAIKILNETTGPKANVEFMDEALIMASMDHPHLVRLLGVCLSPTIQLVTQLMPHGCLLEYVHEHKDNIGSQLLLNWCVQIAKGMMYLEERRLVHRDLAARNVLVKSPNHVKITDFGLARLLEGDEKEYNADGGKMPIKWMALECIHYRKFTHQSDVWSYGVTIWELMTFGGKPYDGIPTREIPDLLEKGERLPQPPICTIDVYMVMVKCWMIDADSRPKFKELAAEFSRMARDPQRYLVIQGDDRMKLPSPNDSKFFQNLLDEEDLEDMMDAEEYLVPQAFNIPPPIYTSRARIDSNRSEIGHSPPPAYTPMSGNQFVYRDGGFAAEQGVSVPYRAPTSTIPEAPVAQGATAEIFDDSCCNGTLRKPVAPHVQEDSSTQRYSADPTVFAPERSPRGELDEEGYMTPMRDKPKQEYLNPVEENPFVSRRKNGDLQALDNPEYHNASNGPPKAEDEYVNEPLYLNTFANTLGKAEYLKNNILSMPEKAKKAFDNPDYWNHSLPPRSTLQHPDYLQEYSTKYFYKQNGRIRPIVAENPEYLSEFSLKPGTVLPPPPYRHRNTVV
Sequence of Tyrosine-protein kinase Fgr (Homo sapiens) (P09769 2-529 limits assumed): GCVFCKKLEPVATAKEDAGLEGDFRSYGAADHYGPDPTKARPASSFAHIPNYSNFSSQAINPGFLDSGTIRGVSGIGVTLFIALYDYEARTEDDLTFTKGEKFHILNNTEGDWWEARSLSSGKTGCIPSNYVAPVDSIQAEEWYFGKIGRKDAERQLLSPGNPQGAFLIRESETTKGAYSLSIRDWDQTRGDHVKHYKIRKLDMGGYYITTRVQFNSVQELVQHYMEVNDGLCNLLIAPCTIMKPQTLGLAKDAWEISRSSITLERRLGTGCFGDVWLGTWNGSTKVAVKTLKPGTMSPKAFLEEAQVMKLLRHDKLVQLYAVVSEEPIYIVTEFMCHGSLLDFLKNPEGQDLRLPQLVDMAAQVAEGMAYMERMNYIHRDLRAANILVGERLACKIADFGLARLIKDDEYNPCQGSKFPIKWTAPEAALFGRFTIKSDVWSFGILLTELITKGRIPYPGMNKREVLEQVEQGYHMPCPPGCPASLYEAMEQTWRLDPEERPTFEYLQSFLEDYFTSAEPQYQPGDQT

## S=c1[nH]nc(-c2ccncc2)n1-c1ccc2ccccc2c1
[1]
  residual activity: 99%
[2]
  inhibition: 88%
[3]
  residual activity: 99%
[4]
  residual activity: 100%
[5]
  residual activity: 101%
[6]
  residual activity: 101%
[7]
  residual activity: 112%
[8]
  residual activity: 103%
[9]
  residual activity: 102%
[10]
  residual activity: 112%
[11]
  residual activity: 103%
[12]
  residual activity: 99%
[13]
  residual activity: 95%
[14]
  residual activity: 109%
[15]
  residual activity: 104%
[16]
  residual activity: 111%
[17]
  residual activity: 96%
[18]
  residual activity: 99%
[19]
  residual activity: 112%
[20]
  residual activity: 111%
[21]
  residual activity: 104%
[22]
  residual activity: 110%
[23]
  residual activity: 109%
[24]
  residual activity: 108%

— ChEMBL document CHEMBL1641539 (Bioorg Med Chem Lett, 2011)
